From patent US20220370440A1 (Lead Discovery Center GmbH, priority 2018, published 2022)
pIC50: −log10 of the molar value.

Key:
HER2 INS YVMA = molecular target: T1, HER2 INS YVMA (Homo sapiens, UniProt P04626, INS775YVMA); experiment: Lance Kinase Activity Assay, HER2 INS YVMA (Her2 Exon 20 INSYVMA Lance); type: biochemical; details: biochemical Lance assay
T1 construct: purchased DPF
Summary of the method: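 IC50 was fitted to sigmoidal curves of TR-FRET signal (665 and 615 nm emission after 340 nm excitation) from an Eu anti-phospho antibody binding the phosphorylated ULight peptide. The ATP-started reaction ran 1 h at RT and was then quenched with 10 mM EDTA plus antibody for a further 1 h. Compounds were tested as 8-point, 3-fold dilutions.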

EGFR wt = EGFR wt (Homo sapiens, UniProt P00533); experiment: EGFR wt Lance assay; type: biochemical
Procedure: (§1) Inhibition is indicated as […] [nM] (“−”=not measured). Compounds having an activity designated as “A” provided an IC50≤100 nM; compounds having an activity designated as “B” provided an 100 nM<IC50≤500 nM; compounds having an activity designated as “C” provided an 500 nM<IC50≤1000 nM; compounds having an activity designated as “D” provided an 1000 nM<IC50≤100000 nM; and compounds having an activity designated as “E” provided an IC50>10000 nM.

[1] = molecular target: Her2 Exon 20 INSYVMA Ba/F3 (Homo sapiens, UniProt P04626, DUP772-775, cells depend on it); experiment: Her2 Exon 20 INSYVMA Ba/F3 CellTiter-Glo; type: cell-based; details: CellTiter-Glo, 72 h, read-out: Her2 Exon 20 INSYVMA Ba/F3 CTG IC50
Summary of the method: (§2)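 Using a 72 h viability readout, compound-treated Ba/F3 cells (pre-incubated 24 h after seeding) were lysed with CellTiter-Glo reagent and luminescence recorded. Potency was expressed as IC50 from a fitted dose–response curve.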

[2] = molecular target: EGFR Exon 20 INSNPH Ba/F3 (Homo sapiens, UniProt P00533, DUP771-773, cells depend on it); experiment: EGFR Exon 20 INSNPH Ba/F3 CellTiter-Glo; type: cell-based; details: CellTiter-Glo, 72 h, read-out: EGFR Exon 20 INSNPH Ba/F3 CTG IC50
Summary of the method: as §2

A431 = A431 CellTiter-Glo; type: cell-based; details: Homo sapiens, A-431; 72 h compound incubation; read-out: A431 CTG IC50
Summary of the method: (§3)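 ATP-based luminescent viability read after 72 h compound exposure (DMSO vehicle, range of concentrations), cells plated 24 h beforehand at 37° C, 5% CO2. IC50 by dose-response fitting; 10 μM Staurosporine and DMSO controls, Z′-factor ≥0.5 required.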

EGFR T790ML858R = EGFR T790ML858R (Homo sapiens, UniProt P00533, L858R/T790M); experiment: EGFR T790ML858R Lance assay; type: biochemical
Procedure: as §1

[3] = Metabolic stability in mouse liver microsomes without cofactor NADPH; type: in vitro ADME; details: 3 μM test compound, mouse liver microsomes, without NADPH, 50 min, 37° C., LC-MS/MS
From the text: There are two major groups of enzyme reactions catalyzed by drug metabolizing enzymes, the so called Phase I and Phase II reactions. The basic processes in phase I reactions are oxidation, reduction and/or hydrolysis mostly catalyzed by the cytochrome P450 (CYP) family of enzymes.
The following procedures describe the determination of the in vitro Phase I metabolic stability of test compounds using liver microsomes by measuring compound depletion over time. Test compound at the concentration of 3 μM was incubated with the liver microsomes from the mouse species and the experiment was performed without NADPH. The depletion of the test compounds was measured over time up to 50 minutes at 37° C. by LC-MS/MS. Different compounds were tested under these conditions for microsomal stability (see Table 5).

H1975 = H1975 CellTiter-Glo; type: cell-based; details: Homo sapiens, NCI-H1975; 72 h compound incubation; read-out: H1975 CTG IC50
Summary of the method: as §3

EGFR wt, sequence (P00533 25-1210): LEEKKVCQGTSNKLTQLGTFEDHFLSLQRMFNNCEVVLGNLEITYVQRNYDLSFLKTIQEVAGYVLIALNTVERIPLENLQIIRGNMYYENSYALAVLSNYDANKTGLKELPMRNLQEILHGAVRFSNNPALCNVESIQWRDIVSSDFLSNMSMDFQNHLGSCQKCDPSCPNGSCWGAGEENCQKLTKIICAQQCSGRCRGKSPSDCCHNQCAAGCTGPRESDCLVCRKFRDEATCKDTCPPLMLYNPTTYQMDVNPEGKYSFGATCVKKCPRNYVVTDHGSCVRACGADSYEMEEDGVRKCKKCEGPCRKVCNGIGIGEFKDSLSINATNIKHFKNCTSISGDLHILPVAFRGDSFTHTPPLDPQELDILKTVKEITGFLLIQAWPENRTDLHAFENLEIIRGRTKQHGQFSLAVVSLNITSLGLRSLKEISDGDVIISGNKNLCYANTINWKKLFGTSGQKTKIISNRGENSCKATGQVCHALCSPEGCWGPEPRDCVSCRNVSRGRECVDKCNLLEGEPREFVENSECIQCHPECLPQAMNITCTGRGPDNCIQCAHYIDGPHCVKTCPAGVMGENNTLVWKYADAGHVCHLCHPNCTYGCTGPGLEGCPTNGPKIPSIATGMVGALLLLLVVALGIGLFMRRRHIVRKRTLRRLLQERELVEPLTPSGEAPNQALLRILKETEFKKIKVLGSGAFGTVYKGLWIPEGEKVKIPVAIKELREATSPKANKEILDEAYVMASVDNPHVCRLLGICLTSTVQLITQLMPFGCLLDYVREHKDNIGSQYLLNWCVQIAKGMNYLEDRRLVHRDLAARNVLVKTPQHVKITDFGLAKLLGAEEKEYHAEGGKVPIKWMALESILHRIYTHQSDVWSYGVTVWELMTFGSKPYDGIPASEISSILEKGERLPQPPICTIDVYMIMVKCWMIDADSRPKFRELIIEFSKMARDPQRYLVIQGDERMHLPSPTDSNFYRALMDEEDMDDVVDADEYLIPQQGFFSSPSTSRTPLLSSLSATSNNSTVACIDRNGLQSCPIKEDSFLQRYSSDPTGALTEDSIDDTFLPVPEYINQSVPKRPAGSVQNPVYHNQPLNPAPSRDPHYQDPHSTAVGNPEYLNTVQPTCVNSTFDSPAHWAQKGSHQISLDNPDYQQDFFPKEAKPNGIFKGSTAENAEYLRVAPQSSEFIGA
EGFR Exon 20 INSNPH Ba/F3, sequence (P00533 with tags, fused parts or gaps DUP771-773): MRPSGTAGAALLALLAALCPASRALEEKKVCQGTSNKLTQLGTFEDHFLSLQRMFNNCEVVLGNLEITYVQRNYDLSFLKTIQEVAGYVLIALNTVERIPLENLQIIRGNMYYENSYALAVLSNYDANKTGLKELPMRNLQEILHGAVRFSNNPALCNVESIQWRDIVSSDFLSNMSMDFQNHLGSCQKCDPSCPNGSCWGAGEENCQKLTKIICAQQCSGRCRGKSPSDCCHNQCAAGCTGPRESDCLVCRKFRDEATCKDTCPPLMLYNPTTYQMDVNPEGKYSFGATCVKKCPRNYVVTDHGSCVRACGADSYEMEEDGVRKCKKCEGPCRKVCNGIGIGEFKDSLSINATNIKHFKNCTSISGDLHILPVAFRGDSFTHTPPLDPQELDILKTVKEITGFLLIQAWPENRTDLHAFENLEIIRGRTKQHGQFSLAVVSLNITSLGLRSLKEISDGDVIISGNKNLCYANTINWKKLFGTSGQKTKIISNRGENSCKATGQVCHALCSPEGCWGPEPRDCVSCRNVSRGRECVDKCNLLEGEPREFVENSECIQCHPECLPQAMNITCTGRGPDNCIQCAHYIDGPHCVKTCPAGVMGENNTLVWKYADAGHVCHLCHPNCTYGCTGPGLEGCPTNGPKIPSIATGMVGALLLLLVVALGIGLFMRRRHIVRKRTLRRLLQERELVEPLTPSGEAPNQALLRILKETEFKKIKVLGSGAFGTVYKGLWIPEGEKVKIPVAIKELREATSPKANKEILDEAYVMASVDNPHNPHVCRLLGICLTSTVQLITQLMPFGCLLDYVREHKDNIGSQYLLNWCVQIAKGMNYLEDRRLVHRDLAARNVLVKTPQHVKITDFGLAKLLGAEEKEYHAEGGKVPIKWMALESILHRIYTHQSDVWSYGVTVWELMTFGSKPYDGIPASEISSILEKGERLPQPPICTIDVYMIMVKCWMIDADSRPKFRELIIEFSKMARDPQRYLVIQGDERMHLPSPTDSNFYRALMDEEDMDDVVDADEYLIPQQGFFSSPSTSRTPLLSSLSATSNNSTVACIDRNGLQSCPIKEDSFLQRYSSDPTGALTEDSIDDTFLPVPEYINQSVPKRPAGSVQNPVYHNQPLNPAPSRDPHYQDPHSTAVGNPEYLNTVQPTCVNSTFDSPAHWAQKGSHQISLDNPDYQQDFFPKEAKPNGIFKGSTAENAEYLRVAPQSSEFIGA
Her2 Exon 20 INSYVMA Ba/F3, sequence (P04626 with tags, fused parts or gaps DUP772-775): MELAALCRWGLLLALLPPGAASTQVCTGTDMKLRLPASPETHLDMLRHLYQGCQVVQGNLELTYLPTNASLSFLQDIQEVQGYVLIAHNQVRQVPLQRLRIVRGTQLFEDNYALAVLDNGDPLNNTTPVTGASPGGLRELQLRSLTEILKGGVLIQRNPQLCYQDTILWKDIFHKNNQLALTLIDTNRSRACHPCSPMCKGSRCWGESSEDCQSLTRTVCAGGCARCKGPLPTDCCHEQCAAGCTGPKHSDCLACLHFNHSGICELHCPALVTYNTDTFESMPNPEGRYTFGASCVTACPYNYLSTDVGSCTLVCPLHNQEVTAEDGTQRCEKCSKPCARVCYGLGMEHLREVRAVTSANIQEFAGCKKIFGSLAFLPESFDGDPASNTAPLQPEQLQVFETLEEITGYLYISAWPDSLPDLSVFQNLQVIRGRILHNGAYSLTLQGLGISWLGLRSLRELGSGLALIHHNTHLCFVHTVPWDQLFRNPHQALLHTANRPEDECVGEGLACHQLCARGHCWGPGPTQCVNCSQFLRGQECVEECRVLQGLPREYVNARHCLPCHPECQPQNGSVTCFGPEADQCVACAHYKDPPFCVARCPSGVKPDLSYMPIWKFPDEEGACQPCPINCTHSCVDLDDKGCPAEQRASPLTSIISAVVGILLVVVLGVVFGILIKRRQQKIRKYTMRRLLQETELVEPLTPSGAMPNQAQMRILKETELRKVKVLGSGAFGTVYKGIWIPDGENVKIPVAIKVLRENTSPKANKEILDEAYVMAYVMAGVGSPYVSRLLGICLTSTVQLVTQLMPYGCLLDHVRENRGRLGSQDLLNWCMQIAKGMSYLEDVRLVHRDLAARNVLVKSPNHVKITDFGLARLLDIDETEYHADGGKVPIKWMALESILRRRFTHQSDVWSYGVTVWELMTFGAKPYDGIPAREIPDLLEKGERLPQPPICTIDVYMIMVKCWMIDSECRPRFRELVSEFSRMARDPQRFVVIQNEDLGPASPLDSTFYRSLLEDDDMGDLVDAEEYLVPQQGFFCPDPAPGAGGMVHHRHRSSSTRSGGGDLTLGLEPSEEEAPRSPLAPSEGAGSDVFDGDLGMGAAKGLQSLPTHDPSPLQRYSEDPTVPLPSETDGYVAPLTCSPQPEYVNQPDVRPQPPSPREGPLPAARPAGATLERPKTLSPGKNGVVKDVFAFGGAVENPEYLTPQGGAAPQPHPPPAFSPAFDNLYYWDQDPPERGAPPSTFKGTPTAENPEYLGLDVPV
EGFR T790ML858R, sequence (P00533 25-1210 T790M/L858R): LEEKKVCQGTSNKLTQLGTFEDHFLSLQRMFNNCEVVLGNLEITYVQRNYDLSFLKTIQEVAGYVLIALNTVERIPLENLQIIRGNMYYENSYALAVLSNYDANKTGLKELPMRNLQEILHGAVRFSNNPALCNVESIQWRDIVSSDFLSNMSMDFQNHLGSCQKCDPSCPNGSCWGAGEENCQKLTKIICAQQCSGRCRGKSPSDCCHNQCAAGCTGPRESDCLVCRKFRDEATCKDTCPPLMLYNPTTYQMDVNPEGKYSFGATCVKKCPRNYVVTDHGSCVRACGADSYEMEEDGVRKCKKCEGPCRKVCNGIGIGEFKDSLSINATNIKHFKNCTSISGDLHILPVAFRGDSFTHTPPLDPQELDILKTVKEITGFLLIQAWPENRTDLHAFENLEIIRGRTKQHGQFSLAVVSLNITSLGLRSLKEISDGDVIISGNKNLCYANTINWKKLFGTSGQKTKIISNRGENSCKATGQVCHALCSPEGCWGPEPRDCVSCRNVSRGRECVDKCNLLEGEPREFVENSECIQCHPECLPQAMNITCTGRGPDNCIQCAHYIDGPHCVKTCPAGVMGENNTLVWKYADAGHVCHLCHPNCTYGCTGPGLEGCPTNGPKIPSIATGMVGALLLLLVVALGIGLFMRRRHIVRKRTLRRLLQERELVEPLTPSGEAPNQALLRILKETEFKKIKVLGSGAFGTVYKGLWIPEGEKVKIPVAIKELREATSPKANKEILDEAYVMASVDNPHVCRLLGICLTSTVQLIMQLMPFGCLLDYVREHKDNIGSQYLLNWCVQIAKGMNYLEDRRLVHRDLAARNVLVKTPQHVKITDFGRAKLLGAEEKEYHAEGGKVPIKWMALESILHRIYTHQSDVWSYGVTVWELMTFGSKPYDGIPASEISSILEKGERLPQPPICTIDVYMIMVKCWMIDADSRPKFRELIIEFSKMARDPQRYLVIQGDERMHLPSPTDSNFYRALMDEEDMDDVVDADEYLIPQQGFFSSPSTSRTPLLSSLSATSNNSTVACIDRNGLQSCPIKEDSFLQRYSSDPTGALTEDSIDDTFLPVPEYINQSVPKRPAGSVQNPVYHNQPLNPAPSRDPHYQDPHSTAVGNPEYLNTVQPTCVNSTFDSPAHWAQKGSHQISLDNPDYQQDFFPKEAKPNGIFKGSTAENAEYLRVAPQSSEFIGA

| SMILES | pIC50 (HER2 INS YVMA) | pIC50 (EGFR wt) | GI50 [1] | GI50 [2] | pIC50 (A431) | pIC50 (EGFR T790ML858R) | Stability in presence of mouse liver microsomes without cofactor NADPH [% remaining after 50 min] [3] | pIC50 (H1975) |
| --- | --- | --- | --- | --- | --- | --- | --- | --- |
| C=CC(=O)N1CCCc2ccc(-c3c(-c4ccc(N5CCN(C(C)C)CC5)cc4)[nH]c4nccc(Cl)c34)cc21 [Example 91, 1-(7-(4-chloro-2-(4-(4-isopropylpiperazin-1-yl)phenyl)-1H-pyrrolo[2,3-b]pyridin-3-yl)-3,4-dihydroquinolin-1(2H)-yl)prop-2-en-1-one] | ≥ 7.00 | ≥ 7.00 | 500 to 1000 nM | 500 to 1000 nM | 4.00 to 6.00 | ≥ 7.00 | >99 % remaining after 50 min | 6.30 to 7.00 |
| C=CC(=O)Nc1cc(-c2c(-c3ccc(N4CCN(C)CC4)cc3)[nH]c3ncc(C(=O)OC(C)C)cc23)cc(F)c1C [Example 165, isoproyl 3-(3-acrylamido-5-fluoro-4-methylphenyl)-2-(4-(4-methylpiperazin-1-yl)phenyl)-1H-pyrrolo[2,3-b]pyridine-5-carboxylate 2,2,2-trifluoroacetate] | ≥ 7.00 | ≥ 7.00 | 100 to 500 nM | 100 to 500 nM | 4.00 to 6.00 | ≥ 7.00 | >99 % remaining after 50 min | 6.30 to 7.00 |
| C=CC(=O)N1CCOc2ccc(-c3c(-c4ccc(N(C)CCN(C)C)cc4)[nH]c4nccc(Cl)c34)cc21 [Example 84, 1-(6-(4-chloro-2-(4-((2-(dimethylamino)ethyl)(methyl)amino)phenyl)-1H-pyrrolo[2,3-b]pyridin-3-yl)-2H-benzo[b][1,4]oxazin-4(3H)-yl)prop-2-en-1-one] | ≥ 7.00 | ≥ 7.00 | 100 to 500 nM | 100 to 500 nM | 6.00 to 6.30 | ≥ 7.00 | 94 % remaining after 50 min | 6.30 to 7.00 |
| C=CC(=O)Nc1cc(-c2c(-c3ccc(N(C)CCN(C)C)cc3)[nH]c3ncc(C(=O)OC(C)C)cc23)ccc1C [Example 154, isopropyl 3-(3-acrylamido-4-methylphenyl)-2-(4-((2-(dimethylamino)ethyl)(methyl)amino)phenyl)-1H-pyrrolo[2,3-b]pyridine-5-carboxylate 2,2,2-trifluoroacetate] | ≥ 7.00 | ≥ 7.00 | 100 to 500 nM | 100 to 500 nM | 4.00 to 6.00 | ≥ 7.00 | >99 % remaining after 50 min | 6.30 to 7.00 |
| C=CC(=O)N1CCOc2ccc(-c3c(-c4ccc(CN5CCN(C)CC5)cc4)[nH]c4nccc(Cl)c34)cc21 [Example 100, 1-(6-(4-chloro-2-(4-((4-methylpiperazin-1-yl)methyl)phenyl)-1H-pyrrolo[2,3-b]pyridin-3-yl)-2H-benzo[b][1,4]oxazin-4(3H)-yl)prop-2-en-1-one] | ≥ 7.00 | ≥ 7.00 | 100 to 500 nM | 500 to 1000 nM | 4.00 to 6.00 | ≥ 7.00 | >99 % remaining after 50 min | 6.30 to 7.00 |
| C=CC(=O)N1CCc2ccc(-c3c(-c4ccc(OCCN5CCCC5)cc4)[nH]c4nccc(OC)c34)cc21 [Example 112, 1-(6-(4-methoxy-2-(4-(2-(pyrrolidin-1-yl)ethoxy)phenyl)-1H-pyrrolo[2,3-b]pyridin-3-yl)indolin-1-yl)prop-2-en-1-one] | ≥ 7.00 | ≥ 7.00 | 500 to 1000 nM | 500 to 1000 nM | 4.00 to 6.00 | ≥ 7.00 | 79 % remaining after 50 min | 6.30 to 7.00 |
| C=CC(=O)Nc1cc(-c2c(-c3ccc(N4CCN(C)CC4)c(F)c3)[nH]c3nccc(Cl)c23)ccc1C [Example 42, N-(5-(4-chloro-2-(3-fluoro-4-(4-methylpiperazin-1-yl)phenyl)-1H-pyrrolo[2,3-b]pyridin-3-yl)-2-methylphenyl)acrylamide] | ≥ 7.00 | ≥ 7.00 | 100 to 500 nM | 100 to 500 nM | 6.30 to 7.00 | ≥ 7.00 | >99 % remaining after 50 min | ≥ 7.00 |
| C=CC(=O)Nc1cc(-c2c(-c3ccc(OCCN(C)C)cc3)[nH]c3ncc(C(=O)OC(C)C)cc23)cc(F)c1C [Example 182, isopropyl 3-(3-acrylamido-5-fluoro-4-methylphenyl)-2-(4-(2-(dimethylamino)ethoxy)phenyl)-1H-pyrrolo[2,3-b]pyridine-5-carboxylate] | ≥ 7.00 | ≥ 7.00 | 100 to 500 nM | 100 to 500 nM | 4.00 to 6.00 | ≥ 7.00 | >99 % remaining after 50 min | 6.30 to 7.00 |
| C=CC(=O)N1CCOc2ccc(-c3c(-c4ccc(N5CCN(C(C)C)CC5)cc4)[nH]c4nccc(Cl)c34)cc21 [Example 85, 1-(6-(4-chloro-2-(4-(4-isopropylpiperazin-1-yl)phenyl)-1H-pyrrolo[2,3-b]pyridin-3-yl)-2H-benzo[b][1,4]oxazin-4(3H)-yl)prop-2-en-1-one] | ≥ 7.00 | ≥ 7.00 | 100 to 500 nM | 100 to 500 nM | 6.00 to 6.30 | ≥ 7.00 | >99 % remaining after 50 min | 6.30 to 7.00 |
| C=CC(=O)Nc1cc(-c2c(-c3ccc(N4CCN(C)CC4)cc3)[nH]c3ncc(C(=O)NC4CCCCC4)cc23)ccc1C [Example 120, 3-(3-acrylamido-4-methylphenyl)-N-cyclohexyl-2-(4-(4-methylpiperazin-1-yl)phenyl)-1H-pyrrolo[2,3-b]pyridine-5-carboxamide] | ≥ 7.00 | ≥ 7.00 | 100 to 500 nM | 100 to 500 nM | 6.30 to 7.00 | ≥ 7.00 | >99 % remaining after 50 min | 6.30 to 7.00 |
| C=CC(=O)Nc1cc(-c2c(-c3ccc(OCCN(C)C)cc3)[nH]c3ncc(C(=O)OC(C)C)cc23)ccc1C [Example 159, isopropyl 3-(3-acrylamido-4-methylphenyl)-2-(4-(2-(dimethylamino)ethoxy)phenyl)-1H-pyrrolo[2,3-b]pyridine-5-carboxylate] | ≥ 7.00 | ≥ 7.00 | 100 to 500 nM | 100 to 500 nM | 4.00 to 6.00 | ≥ 7.00 | >99 % remaining after 50 min | 6.30 to 7.00 |
| C=CC(=O)N1CCc2ccc(-c3c(-c4cccc(OCCN5CCCC5)c4)[nH]c4nccc(Cl)c34)cc21 [Example 64, 1-(6-(4-chloro-2-(3-(2-(pyrrolidin-1-yl)ethoxy)phenyl)-1H-pyrrolo[2,3-b]pyridin-3-yl)indolin-1-yl)prop-2-en-1-one] | ≥ 7.00 | ≥ 7.00 | 100 to 500 nM | 100 to 500 nM | 6.00 to 6.30 | ≥ 7.00 | >99 % remaining after 50 min | ≥ 7.00 |
| C=CC(=O)Nc1cc(-c2c(-c3ccc(N4CCN(C)CC4)cc3)[nH]c3ncc(C(=O)NC(C)C)cc23)ccc1C [Example 119, 3-(3-acrylamido-4-methylphenyl)-N-isopropyl-2-(4-(4-methylpiperazin-1-yl)phenyl)-1H-pyrrolo[2,3-b]pyridine-5-carboxamide] | ≥ 7.00 | ≥ 7.00 | 100 to 500 nM | 100 to 500 nM | 6.00 to 6.30 | ≥ 7.00 | >99 % remaining after 50 min | 6.00 to 6.30 |
